Source: patent publication US20220411471A1, “CELL-PERMEABLE CYCLIC PEPTIDES AND USES THEREOF” (Unnatural Products Inc., priority 2019, published 2022)
Non-standard residues stand in square brackets, D forms with d. Residues, ends and D or L forms follow the SMILES beside them. Phe(4-Cl) = N[C@@H](Cc1ccc(Cl)cc1)C(=O)O; Phe(3-F) = N[C@@H](Cc1cccc(F)c1)C(=O)O; Phe(4-F) = N[C@@H](Cc1ccc(F)cc1)C(=O)O; 3Pal = N[C@@H](Cc1cccnc1)C(=O)O; 2Thi = N[C@@H](Cc1cccs1)C(=O)O; dNMeV = CN[C@@H](C(=O)O)C(C)C; Tle = CC(C)(C)[C@H](N)C(=O)O; NMeV = CN[C@H](C(=O)O)C(C)C; dPip = O=C(O)[C@H]1CCCCN1; NMeA = CN[C@@H](C)C(=O)O; Nme = COCCNCC(=O)O

Target: T1, Human MDM2 (HDM2) 1-116 (Homo sapiens, UniProt Q00987)
T1 construct: Human MDM2 (HDM2) 1-116
T1 sequence (Q00987 1-116): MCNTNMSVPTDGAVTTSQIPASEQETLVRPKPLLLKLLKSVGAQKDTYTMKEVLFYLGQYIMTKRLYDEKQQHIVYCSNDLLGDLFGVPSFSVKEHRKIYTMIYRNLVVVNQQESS
Assay: Fluorescence polarization assay, MDM2/p53 (Table 3)
Type: binding
Method: (§1) Human MDM2 (HDM2) 1-116 (20 μL) and FITC-labeled p53 (18-26), 50 nM and 10 nM respectively in 10 mM Tris, 50 mM NaCl, 0.01% Tween20, and 1 mM DTT at pH 7.4 were dispensed into an opaque, black, 384 well plate. Compounds dissolved in DMSO were pin transferred (˜200 nL) to the 384 well plate containing the MDM2/p53 solution. After incubation for 10 minutes, the fluorescence polarization was read on a Molecular Devices SpectraMax plate reader equipped with a Fluorescein FP cartridge. In addition to probe alone (positive control) and probe/MDM2 (negative control), a titration of linear p53(18-26) was included on every plate as an additional control. IC50 values were fit using either Prism or Collaborative Drug Discovery.
as §1, with “and FAM-labeled RFMDYWEGL-NH2,” for “and FITC-labeled p53 (18-26),”, “NaCl, 0.010%” for “NaCl, 0.01%”, “transferred (˜100-200” for “transferred (˜200”, “for 60” for “for 10”

SMILES | IC50
COCCN1CC(=O)N(C)[C@@H](C)C(=O)N[C@@H](Cc2ccc(F)cc2)C(=O)N(C)[C@@H](C)C(=O)N[C@@H](Cc2ccc(Cl)cc2)C(=O)N(C)[C@H](C(C)C)C(=O)N2CCC[C@H]2C(=O)N[C@@H](Cc2ccccc2)C(=O)N[C@@H](C(C)(C)C)C(=O)N[C@@H](Cc2cccnc2)C1=O [Compound 23, COCCN1CC(=O)N(C)[C@@H](C)C(=O)N[C@@H](Cc2ccc(F)cc2)C(=O)N(C)[C@@H](C)C(=O)N[C@@H](Cc2ccc(Cl)cc2)C(=O)N(C)[C@H](C(C)C)C(=O)N2CCC[C@H]2C(=O)N[C@@H](Cc2ccccc2)C(=O)N[C@H](C(=O)N[C@@H](Cc2cccnc2)C1=O)C(C)(C)C] (cyclo([3Pal][Nme][NMeA][Phe(4-F)][NMeA][Phe(4-Cl)][dNMeV]PF[Tle])) | < 1000 nM
COCCN1CC(=O)N(C)[C@@H](C)C(=O)N[C@@H](Cc2ccc(F)cc2)C(=O)N(C)[C@@H](C)C(=O)N[C@@H](Cc2ccc(Cl)cc2)C(=O)N(C)[C@H](C(C)C)C(=O)N2CCC[C@H]2C(=O)N[C@@H](Cc2ccccc2)C(=O)N[C@@H](C(C)(C)C)C(=O)N[C@@H](Cc2cccc(F)c2)C1=O [Compound 24, COCCN1CC(=O)N(C)[C@@H](C)C(=O)N[C@@H](Cc2ccc(F)cc2)C(=O)N(C)[C@@H](C)C(=O)N[C@@H](Cc2ccc(Cl)cc2)C(=O)N(C)[C@H](C(C)C)C(=O)N2CCC[C@H]2C(=O)N[C@@H](Cc2ccccc2)C(=O)N[C@H](C(=O)N[C@@H](Cc2cccc(F)c2)C1=O)C(C)(C)C] (cyclo(F[Tle][Phe(3-F)][Nme][NMeA][Phe(4-F)][NMeA][Phe(4-Cl)][dNMeV]P)) | 1000 to 2500 nM
COCCN1CC(=O)N[C@@H](Cc2ccc(Cl)cc2)C(=O)N2CCCC[C@@H]2C(=O)N2CCC[C@H]2C(=O)N[C@@H](Cc2cccs2)C(=O)N[C@@H](C(C)(C)C)C(=O)N[C@@H](Cc2cccnc2)C(=O)N2CCC[C@@H]2C(=O)N(C)[C@@H](C)C(=O)N[C@@H](Cc2ccc(F)cc2)C1=O [Compound 25, COCCN1CC(=O)N[C@@H](Cc2ccc(Cl)cc2)C(=O)N2CCCC[C@@H]2C(=O)N2CCC[C@H]2C(=O)N[C@@H](Cc2cccs2)C(=O)N[C@H](C(=O)N[C@@H](Cc2cccnc2)C(=O)N2CCC[C@@H]2C(=O)N(C)[C@@H](C)C(=O)N[C@@H](Cc2ccc(F)cc2)C1=O)C(C)(C)C] (cyclo([2Thi][Tle][3Pal][dP][NMeA][Phe(4-F)][Nme][Phe(4-Cl)][dPip]P)) | < 1000 nM
C[C@H]1C(=O)N[C@@H](Cc2cccnc2)C(=O)N2CCC[C@@H]2C(=O)N(C)[C@@H](C)C(=O)N[C@@H](Cc2ccc(F)cc2)C(=O)N[C@@H](C(C)(C)C)C(=O)N[C@@H](Cc2ccc(Cl)cc2)C(=O)N2CCCC[C@@H]2C(=O)N2CCC[C@H]2C(=O)N[C@@H](Cc2ccccc2)C(=O)N1C [Compound 26, C[C@@H]1N(C)C(=O)[C@H]2CCCN2C(=O)[C@H](Cc2cccnc2)NC(=O)[C@H](C)N(C)C(=O)[C@H](Cc2ccccc2)NC(=O)[C@@H]2CCCN2C(=O)[C@H]2CCCCN2C(=O)[C@H](Cc2ccc(Cl)cc2)NC(=O)[C@@H](NC(=O)[C@H](Cc2ccc(F)cc2)NC1=O)C(C)(C)C] (cyclo([3Pal][dP][NMeA][Phe(4-F)][Tle][Phe(4-Cl)][dPip]PF[NMeA])) | < 1000 nM
CC(C)[C@H]1C(=O)N[C@@H](Cc2cccnc2)C(=O)N2CCC[C@@H]2C(=O)N(C)[C@@H](C)C(=O)N[C@@H](Cc2ccc(F)cc2)C(=O)N[C@@H](C(C)(C)C)C(=O)N[C@@H](Cc2ccc(Cl)cc2)C(=O)N2CCCC[C@@H]2C(=O)N2CCC[C@H]2C(=O)N[C@@H](Cc2ccccc2)C(=O)N1C [Compound 27, CC(C)[C@@H]1N(C)C(=O)[C@H](Cc2ccccc2)NC(=O)[C@@H]2CCCN2C(=O)[C@H]2CCCCN2C(=O)[C@H](Cc2ccc(Cl)cc2)NC(=O)[C@@H](NC(=O)[C@H](Cc2ccc(F)cc2)NC(=O)[C@H](C)N(C)C(=O)[C@H]2CCCN2C(=O)[C@H](Cc2cccnc2)NC1=O)C(C)(C)C] (cyclo([3Pal][dP][NMeA][Phe(4-F)][Tle][Phe(4-Cl)][dPip]PF[NMeV])) | 1000 to 2500 nM
C[C@H]1C(=O)N[C@@H](Cc2ccc(Cl)cc2)C(=O)N2CCCC[C@@H]2C(=O)N2CCC[C@H]2C(=O)N[C@@H](Cc2ccccc2)C(=O)N[C@@H](C(C)(C)C)C(=O)N[C@@H](Cc2cccnc2)C(=O)N2CCCC[C@@H]2C(=O)N(C)[C@@H](C)C(=O)N[C@@H](Cc2ccc(F)cc2)C(=O)N1C [Compound 28, C[C@@H]1N(C)C(=O)[C@H]2CCCCN2C(=O)[C@H](Cc2cccnc2)NC(=O)[C@@H](NC(=O)[C@H](Cc2ccccc2)NC(=O)[C@@H]2CCCN2C(=O)[C@H]2CCCCN2C(=O)[C@H](Cc2ccc(Cl)cc2)NC(=O)[C@H](C)N(C)C(=O)[C@H](Cc2ccc(F)cc2)NC1=O)C(C)(C)C] (cyclo([3Pal][dPip][NMeA][Phe(4-F)][NMeA][Phe(4-Cl)][dPip]PF[Tle])) | 1000 to 2500 nM
COCCN1CC(=O)N(C)[C@@H](C)C(=O)N[C@@H](Cc2ccc(F)cc2)C(=O)N[C@@H](C(C)(C)C)C(=O)N[C@@H](Cc2ccc(Cl)cc2)C(=O)N2CCCC[C@@H]2C(=O)N2CCC[C@H]2C(=O)N[C@@H](Cc2ccccc2)C(=O)N[C@@H](C(C)(C)C)C(=O)N[C@@H](Cc2cccnc2)C1=O [Compound 29, COCCN1CC(=O)N(C)[C@@H](C)C(=O)N[C@@H](Cc2ccc(F)cc2)C(=O)N[C@H](C(=O)N[C@@H](Cc2ccc(Cl)cc2)C(=O)N2CCCC[C@@H]2C(=O)N2CCC[C@H]2C(=O)N[C@@H](Cc2ccccc2)C(=O)N[C@H](C(=O)N[C@@H](Cc2cccnc2)C1=O)C(C)(C)C)C(C)(C)C] (cyclo([3Pal][Nme][NMeA][Phe(4-F)][Tle][Phe(4-Cl)][dPip]PF[Tle])) | < 1000 nM
COCCN1CC(=O)N(C)[C@@H](C)C(=O)N[C@@H](Cc2ccc(F)cc2)C(=O)N(C)[C@@H](C)C(=O)N[C@@H](Cc2ccc(Cl)cc2)C(=O)N2CCCC[C@@H]2C(=O)N2CCC[C@H]2C(=O)N[C@@H](Cc2ccccc2)C(=O)N[C@@H](C(C)(C)C)C(=O)N[C@@H](Cc2ccc(O)cc2)C1=O [Compound 30, [H]Oc1ccc(C[C@@H]2NC(=O)[C@@H](NC(=O)[C@H](Cc3ccccc3)NC(=O)[C@@H]3CCCN3C(=O)[C@H]3CCCCN3C(=O)[C@H](Cc3ccc(Cl)cc3)NC(=O)[C@H](C)N(C)C(=O)[C@H](Cc3ccc(F)cc3)NC(=O)[C@H](C)N(C)C(=O)CN(CCOC)C2=O)C(C)(C)C)cc1] (cyclo(F[Tle]Y[Nme][NMeA][Phe(4-F)][NMeA][Phe(4-Cl)][dPip]P)) | 2500 to 5000 nM
COCCN1CC(=O)N(C)[C@@H](C)C(=O)N[C@@H](Cc2ccc(F)cc2)C(=O)N(C)[C@@H](C)C(=O)N[C@@H](Cc2ccc(Cl)cc2)C(=O)N(C)[C@H](C(C)C)C(=O)N2CCC[C@H]2C(=O)N[C@@H](Cc2ccccc2)C(=O)N[C@@H](C(C)(C)C)C(=O)N[C@@H](Cc2ccc(O)cc2)C1=O [Compound 31, [H]Oc1ccc(C[C@@H]2NC(=O)[C@@H](NC(=O)[C@H](Cc3ccccc3)NC(=O)[C@@H]3CCCN3C(=O)[C@@H](C(C)C)N(C)C(=O)[C@H](Cc3ccc(Cl)cc3)NC(=O)[C@H](C)N(C)C(=O)[C@H](Cc3ccc(F)cc3)NC(=O)[C@H](C)N(C)C(=O)CN(CCOC)C2=O)C(C)(C)C)cc1] (cyclo(F[Tle]Y[Nme][NMeA][Phe(4-F)][NMeA][Phe(4-Cl)][dNMeV]P)) | ≥ 5000 nM
